Assays:
Chlorella sp. ATCC 7516 = assay: Algal efficacy testing of dry paint film (modified ASTM 5589, 6-well plates); type: cell-based; conditions: 4 weeks
Protocol: (§1) Slurries containing 34.3% carbendazim were post added to a white, acrylic/silicone based outdoor paint free of biocides to give a total active ingredient concentration of 10000 and 1000 ppm respectively. These paints were then diluted with an antimicrobial free acrylic/silicone based paint and mixed to prepare targeted concentrations of antimicrobial compounds for the testing. The total biocides concentrations tested were 125, 250, 500, 1000, 2000 and 5000 ppm. After biocides addition or dilution, the paints were mixed 90 seconds with the horse power shaker (AXEL 75M3372/Agitateur SO-10MI) until uniformity was achieved. Paints containing different antimicrobial compounds at the same levels were mixed together in order to obtain the desired ratio of antimicrobial compounds. After one day, the paints were applied to Schleicher & Schuell filter paper at 280 μm wet film thickness and dried for 3 days at room temperature avoiding direct exposure to sunlight. Square discs (1.6 cm×1.6 cm) were cut out from each panel and were used as the substrate for algal efficacy tests. This sample size allowed for an agar border when the sample disc was placed into the well of the test plate.
(§2) Algal efficacy was tested according to modified ASTM 5589 which is a standard accelerated test method for determining resistance of various coatings (including paints) to algal defacement. To accommodate for high-throughput screening, this method was scaled down from petri dishes to 6-well plates. Bold Modified Basal Freshwater Nutrient Solution was used as growth medium. A single coated filter paper coupon was placed with a pair of sterile forceps at the center of the agar plug (on top) with the painted surface facing upwards. Algal inoculums were prepared by mixing equal concentrations (1×10^6 cfu/ml) and equal volumes of exponentially growing algae cultures.
(§3) Each well that contains a tested coupon was inoculated with 1750 μl of algal suspensions (1×10^6 cfu/ml) making sure that the whole surface (paint film as well as the agar surrounding it) was evenly covered. The plates were incubated at room temp (21° C. -25° C.) with cyclic exposure to light and dark phases, for a period of four weeks.
(§4) At the end of the four week incubation period, the samples were scored for percent inhibition regarding visible algal growth compared to the blank sample (0% inhibition).
(§5) The SI is calculated based on F. C. Kull et.
(§6) The minimal targeted inhibition was set at 75%, meaning a coupon with at least 75% algal growth inhibition was considered as a pass.

[1] = tested on: Stichococcus bacillaris SAG 379-1a CCAP 379/1a; assay: as above; type: cell-based; conditions: 4 weeks
Protocol: as §1, §2, §3, §4, §5, §6

[2] = pass level 75% inhibition, total biocide in liquid paint

For `COC(=O)Nc1nc2ccccc2[nH]1` [Carbendazim, methylbenzimidazol-2-ylcarbamate], the “Total conc (concentration used for SI; lowest passing level or highest level without pass)” value (Chlorella sp. ATCC 7516; [2]) was 2000 ppm, the inhibition at 2000 ppm (Chlorella sp. ATCC 7516; 672 h, total conc 2000 ppm, visible algal growth vs blank) was 45% and the “Total conc (concentration used for SI; lowest passing level or highest level without pass)” value [1, 2] was 2000 ppm. For the same compound, the inhibition at 2000 ppm ([1]; Stichococcus bacillaris, 672 h, total conc 2000 ppm, visible algal growth vs blank) was 45%.

`O=c1[nH]c2c(c(=O)n1C1CCCCC1)CCC2` [Lenacil, 3-cyclohexyl-1,5,6,7-tetrahydrocyclopentapyrimidine-2,4(3H)-dione] showed an inhibition at 5000 ppm (Chlorella sp. ATCC 7516; 672 h, total conc 5000 ppm, visible algal growth vs blank) of 45% and an inhibition at 5000 ppm ([1]; Stichococcus bacillaris, 672 h, total conc 5000 ppm, visible algal growth vs blank) of 65%.
